Experimental data taken from patent US20250144051A1, “Colchicine for Treating Connective Tissue Disorders” (Khan Sciences, Inc., priority 2023, published 2025).

Columns and labels:
IL-6 = assay: In vitro tendinopathy model, IL-6 in tenocyte supernatant (MSD multiplex); type: cell-based, human
Protocol: (§1) In Vitro Tendinopathy Model: The below experiment was conducted on an in vitro tendinopathy model. Cells derived from human tendons (tenocytes) can serve as an in vitro model of tendons. See Miller et al., “MicroRNA29a regulates IL-33-mediated tissue remodelling in tendon disease.” Nat Commun 6, 6774 (2015). Cultured tenocytes can be used to investigate the effects of pro-inflammatory cytokines upon the most basic elements of tendon structure. See Ellis et al., “Defining the profile: Characterizing cytokines in tendon injury to improve clinical therapy.” Journal of Immunology and Regenerative Medicine 16, 100059 (2022). When a tendon is injured, it triggers a local inflammatory response that involves immune cell infiltration and the expression of pro-inflammatory mediators. This inflammatory environment can modify tenocyte physiology, causing them to become activated and pro-inflammatory. Exposing the tenocytes to the pro-inflammatory cytokines TNF-α and IL-1β can mimic the effects of tendon injury. See Smith et al., “Tumour necrosis factor alpha, interleukin 1 beta and interferon gamma have detrimental effects on equine tenocytes that cannot be rescued by IL-1RA or mesenchymal stromal cell-derived factors.” Cell Tissue Res 391, 523-544 (2023).
(§2) Cell Culture System. Immortalized, healthy, commercially-sourced human tenocyte cells (donor, patellar tendon) were reconstituted, seeded in T-75 flasks coated with bovine collagen I, and were maintained in Tenocyte Growth Medium supplemented with Tenocyte Growth Supplement, FBS, and penicillin/streptomycin. Culture conditions were maintained at 37° C. in a humidified 5% CO2 atmosphere. Cells were seeded at a density of 100,000 cells/well in commercially-sourced 24-well plates that were pre-coated with rat tail tendon collagen I.
(§3) Treatment Protocol. This study was designed to follow the time-course of collagen production after cytokine exposure to mimic the effects of tendon injury. The time variable was cytokine exposure time (6 hours, 1 day, 3 days, and 5 days). Each of these cytokine exposure time periods was followed by a 24-hour drug treatment period. Inflammatory conditions were induced using a combination of IL-1β (1 nM; 17 ng/ml) and TNF-α (10 ng/ml). Two therapeutic interventions were evaluated. The treatment designated as “treatment A” was colchicine (2 nM). The treatment designated as “treatment B” was colchicine (2 nM) plus pyridoxine (100 μM).
(§4) Experimental Groups. The treatment groups were as follows: (1) exposed to inflammatory cytokines plus treatment A; (2) exposed to inflammatory cytokines plus treatment B; (3) exposed to inflammatory cytokines (negative control, no drug). Further reference control groups were as follows: (A) treatment A without inflammatory cytokine exposure (drug-only control); (B) treatment B without inflammatory cytokine exposure (drug-only control); (C) healthy control (no inflammatory cytokines, no drug treatment).
(§5) Sample Collection Times. Samples were collected at the following timepoints after initiation of cytokine exposure: • 6-hour samples: Collection at 30 hours (6 hr cytokine exposure+24 hr drug treatment) • 1-day samples: Collection at 48 hours (24 hr cytokine exposure+24 hr drug treatment) • 3-day samples: Collection at 96 hours (72 hr cytokine exposure+24 hr drug treatment) • 5-day samples: Collection at 144 hours (120 hr cytokine exposure+24 hr drug treatment, cell culture medium replenished on day-3)
(§6) Assays Used. Collagen I (human) content was measured using enzyme-linked immunosorbent assay (ELISA) in cell culture supernatants. TGF-β1 in cell culture supernatants were measured using the MSD multiplex platform. Other inflammatory cytokines in cell culture supernatants were measured using the MSD multiplex platform.

[1] = system: patient with bilateral upper extremity tendonitis (repetitive strain injury); assay: Experimental clinical trial of oral colchicine in one patient with tendonitis; type: in vivo, human
Protocol: An experimental trial was conducted on a patient, who was a person with bilateral upper extremity tendonitis for 7 months duration. The symptoms at the wrist radiated down to their fingers and up to their elbow. They reported the severity of their symptoms as 5-7 on a 1-10 standard discomfort scale. The cause of their widespread tendonitis was repetitive strain injury.
The patient began treatment with 0.6 mg of colchicine by oral intake once daily. […] With continued daily dosing of colchicine for a total of two weeks duration, symptoms were nearly gone. They were free of symptoms while performing their activities of daily living. At the end of two weeks of treatment, the patient reported reduced severity of symptoms to a level of 2 on a standard 1-10 discomfort scale.
The experimental trial was further extended to observe the effect of discontinuing the colchicine after initially achieving therapeutic success. Upon discontinuing, their tendonitis symptoms gradually returned. After 7 days without treatment, they reported the severity of their symptoms had worsened to 5 on the standard scale. After another 14 days without treatment (21 days cumulative), their symptoms remained at level 5, and occasionally rising to level 6 with increased arm use activity.

IL-33 = assay: In vitro tendinopathy model, IL-33 in tenocyte supernatant (MSD multiplex); type: cell-based, human; parameters: IL-33, % of negative control / reduction of IL-33 levels compared to negative control: concentration or dose not given beside the values
Protocol: as §1, §2, §3, §4, §5, §6

[2] = 6 hr cytokine exposure + 24 hr drug treatment
[3] = 1 day cytokine exposure + 24 hr drug treatment
[4] = 3 days cytokine exposure + 24 hr drug treatment
[5] = 5 days cytokine exposure + 24 hr drug treatment

In the case of `COc1cc2c(c(OC)c1OC)-c1ccc(OC)c(=O)cc1[C@@H](NC(C)=O)CC2` [Treatment A, colchicine], the “IL-6, % of healthy level” value (IL-6; [2]) was 873.4%, the “IL-6, % of negative control” value (IL-6; [2]) was 185.1% and the IL-6 level (IL-6; 6 hr cytokine exposure + 24 hr drug treatment, negative control 1614.8 pg/mL) was 2989.5 pg/mL. The “IL-6, % of healthy level” value (IL-6; [3]) was 617.8%, the “IL-6, % of negative control” value (IL-6; [3]) was 122.5% and the IL-6 level (IL-6; 1 day cytokine exposure + 24 hr drug treatment, negative control 1726.6 pg/mL) was 2114.9 pg/mL. The “IL-6, % of healthy level” value (IL-6; [4]) was 397.3%, the “IL-6, % of negative control” value (IL-6; [4]) was 127.5% and the IL-6 level (IL-6; 3 days cytokine exposure + 24 hr drug treatment, negative control 1067.0 pg/mL) was 1360.1 pg/mL. For the same compound, the “IL-6, % of healthy level” value (IL-6; [5]) was 207.0%, the “IL-6, % of negative control” value (IL-6; [5]) was 101.7% and the IL-6 level (IL-6; 5 days cytokine exposure + 24 hr drug treatment, negative control 696.6 pg/mL) was 708.5 pg/mL. For the same compound, the IL-6 level (IL-6; drug alone, without inflammatory cytokines, healthy control 342.3 pg/mL) was 73.7 pg/mL, the tendonitis symptoms ([1]; 0.6 mg oral once daily, by the second day of treatment) was “began to improve” and the “severity of symptoms on standard 1-10 discomfort scale” value (from here on “severity of symptoms”) ([1]; 0.6 mg oral once daily, end of two weeks of treatment, before treatment 5-7) was 2. The tendonitis symptoms ([1]; 0.6 mg oral once daily, total of two weeks duration) was “nearly gone”, the “severity of symptoms” value ([1]; 7 days without treatment after discontinuing colchicine) was 5 and the “severity of symptoms” value ([1]; 21 days cumulative without treatment after discontinuing colchicine) was 5. The “IL-33, % of healthy level” value (IL-33; [2]) was 113.6%, the “IL-33, % of negative control” value (IL-33; [2]) was 55.0% and the IL-33 level (IL-33; 6 hr cytokine exposure + 24 hr drug treatment, negative control 18.0 pg/mL) was 9.9 pg/mL. The “IL-33, % of healthy level” value (IL-33; [3]) was 128.1%, the “IL-33, % of negative control” value (IL-33; [3]) was 85.1% and the IL-33 level (IL-33; 1 day cytokine exposure + 24 hr drug treatment, negative control 13.1 pg/mL) was 11.2 pg/mL. The “IL-33, % of healthy level” value (IL-33; [4]) was 87.1%, the “IL-33, % of negative control” value (IL-33; [4]) was 70.8% and the IL-33 level (IL-33; 3 days cytokine exposure + 24 hr drug treatment, negative control 10.7 pg/mL) was 7.6 pg/mL. The “IL-33, % of healthy level” value (IL-33; [5]) was 167.4%, the “IL-33, % of negative control” value (IL-33; [5]) was 85.4% and the IL-33 level (IL-33; 5 days cytokine exposure + 24 hr drug treatment, negative control 17.1 pg/ml) was 14.6 pg/mL. The “reduction of IL-33 levels compared to negative control” value (IL-33; at 6 hours) was 45% and the IL-33 level (IL-33; drug alone, without inflammatory cytokines, healthy control 8.7 pg/mL) was 3.4 pg/mL.
